Assay [1] deals with T1, G12V-mutant human KRAS (amino acid residues 1-188) (Homo sapiens, UniProt P01116, G12V).
T1 construct: G12V-mutant human KRAS (amino acid residues 1-188) with FLAG tag was purified from E. coli; made in house; host or cells: E. coli
The assay is described as follows: KRAS Binding Competition Assay (AlphaScreen; biotinylated KRpep-2d analogue), G12V. To be noted: geometric mean, read-out: KRAS GMean IC50 (uM) MUTATION: G12V. (In general: Bead proximity is the source of the signal in Alpha formats.)

In assay [2] the target is T2, G12D-mutant human KRAS (amino acid residues 1-188) (Homo sapiens, UniProt P01116, G12D).
T2 construct: G12D or G12C-mutant human KRAS (amino acid residues 1-188) with FLAG tag; made in house; host or cells: E. coli
The assay is described as follows: KRAS Binding Disruption Assay (AlphaScreen; biotinylated KRpep-2d analogue or RAF1-RBD), G12D. The settings on record: KRAS G12D; geometric mean; read-out: KRAS GMean IC50 (uM) MUTATION: G12D. In a few lines:
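AlphaScreen readout: signal falls as compound displaces biotinylated KRpep-2d analogue or RAF1-RBD from mutant KRAS. Both partners at 5-20 nM, 1 h binding at 25° C, then 10 μg/mL Anti-Flag acceptor and streptavidin donor beads for 1 h. IC50 by nonlinear regression of % inhibition.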

Consider `CN1CCC[C@H]1COc1nc(N2[C@@H]3CC[C@H]2CNC3)c2ccc(-c3cccc(O)c3)cc2n1` [P-0285, 3-(4-((1R,5S)-3,8-diazabicyclo[3.2.1]octan-8-yl)-2-(((S)-1-methylpyrrolidin-2-yl)methoxy)quinazolin-7-yl)phenol], for which the IC50 in assay [1] and in assay [2] was 100 to 1000 µM each time.

On to `Cc1c(N)cccc1-c1ccc2c(N3[C@@H]4CC[C@H]3CNC4)nc(OC[C@@H]3CCCN3C)nc2c1` [P-0286, 3-(4-((1R,5S)-3,8-diazabicyclo[3.2.1]octan-8-yl)-2-(((S)-1-methylpyrrolidin-2-yl)methoxy)quinazolin-7-yl)-2-methylaniline], for which the IC50 in assay [1] and in assay [2] was 10 to 100 µM in each case.

In the case of `CN(C)CCCS(=O)(=O)N1[C@@H]2CC[C@H]1CN(c1nc(OCC34CCCN3CCC4)nc3c(F)c(-c4cc(O)cc5ccccc45)ccc13)C2` [P-0287, 4-(4-((1R,5S)-8-((3-(dimethylamino)propyl)sulfonyl)-3,8-diazabicyclo[3.2.1]octan-3-yl)-8-fluoro-2-((tetrahydro-1H-pyrrolizin-7a(5H)-yl)methoxy)quinazolin-7-yl)naphthalen-2-ol], the IC50 in assay [1] and in assay [2] was 0.0001 to 10 µM in each case.

`CN1CCC[C@H]1COc1nc(N2[C@@H]3CC[C@H]2CNC3)c2ccc(-c3c(F)ccc(N)c3F)cc2n1` [P-0288, 3-(4-((1R,5S)-3,8-diazabicyclo[3.2.1]octan-8-yl)-2-(((S)-1-methylpyrrolidin-2-yl)methoxy)quinazolin-7-yl)-2,4-difluoroaniline]: the IC50 in assay [1] and in assay [2] was 10 to 100 µM in each case.

As to `CN1CCC[C@H]1COc1nc(N2C[C@H]3CC[C@@H](C2)N3)c2ccc(Nc3n[nH]c4ccccc34)cc2n1` [P-0289, 4-((1R,5S)-3,8-diazabicyclo[3.2.1]octan-3-yl)-N-(1H-indazol-3-yl)-2-(((S)-1-methylpyrrolidin-2-yl)methoxy)quinazolin-7-amine], the IC50 in assay [1] and in assay [2] was 10 to 100 µM throughout.

On to `CN1CCC[C@H]1COc1nc(N2[C@@H]3CC[C@H]2CNC3)c2ccc(-c3c(O)cccc3Cl)cc2n1` [P-0290, 2-(4-((1R,5S)-3,8-diazabicyclo[3.2.1]octan-8-yl)-2-(((S)-1-methylpyrrolidin-2-yl)methoxy)quinazolin-7-yl)-3-chlorophenol], for which the IC50 in assay [1] and in assay [2] was 10 to 100 µM in each case.

Take `Cc1cccc(N)c1-c1ccc2c(N3[C@@H]4CC[C@H]3CNC4)nc(OC[C@@H]3CCCN3C)nc2c1` [P-0291, 2-(4-((1R,5S)-3,8-diazabicyclo[3.2.1]octan-8-yl)-2-(((S)-1-methylpyrrolidin-2-yl)methoxy)quinazolin-7-yl)-3-methylaniline]: the IC50 in assay [1] and in assay [2] was 10 to 100 µM in each case.

On to `CN1CCC[C@H]1COc1nc(N2[C@@H]3CC[C@H]2CN(C(=O)CC2SC(=O)NC2=O)C3)c2ccc(-c3cc(O)cc4ccccc34)cc2n1` (stereo partly drawn) [P-0292, 5-(2-((1R,5S)-8-(7-(3-hydroxynaphthalen-1-yl)-2-(((S)-1-methylpyrrolidin-2-yl)methoxy)quinazolin-4-yl)-3,8-diazabicyclo[3.2.1]octan-3-yl)-2-oxoethyl)thiazolidine-2,4-dione], for which the IC50 in assay [1] and in assay [2] was 10 to 100 µM throughout.

As for `CN1CCC[C@H]1COc1nc(N2C[C@H]3CC[C@@H](C2)N3)c2ccc(-c3c[nH]c4ccccc34)c(F)c2n1` [P-0293, 4-((1R,5S)-3,8-diazabicyclo[3.2.1]octan-3-yl)-8-fluoro-7-(1H-indol-3-yl)-2-(((S)-1-methylpyrrolidin-2-yl)methoxy)quinazoline], the IC50 lay within 10 to 100 µM in assay [1] and 0.0001 to 10 µM in assay [2].

As for `CN1CCC[C@H]1COc1nc(N2C[C@H]3CC[C@@H](C2)N3)c2ccc(-c3c[nH]c4cccc(Cl)c34)c(F)c2n1` [P-0294, 4-((1R,5S)-3,8-diazabicyclo[3.2.1]octan-3-yl)-7-(4-chloro-1H-indol-3-yl)-8-fluoro-2-(((S)-1-methylpyrrolidin-2-yl)methoxy)quinazoline], the half-maximal inhibitory concentration (IC50) in assay [1] and in assay [2] was 10 to 100 µM throughout.

`CN1CCC[C@H]1COc1nc(N2C[C@H]3CC[C@@H](C2)N3)c2ccc(-c3c[nH]c4ccc(Cl)cc34)c(F)c2n1` [P-0295, 4-((1R,5S)-3,8-diazabicyclo[3.2.1]octan-3-yl)-7-(5-chloro-1H-indol-3-yl)-8-fluoro-2-(((S)-1-methylpyrrolidin-2-yl)methoxy)quinazoline]: the IC50 in assay [1] is 100 to 1000 µM; in assay [2], 0.0001 to 10 µM.

Take `CN1CCC[C@H]1COc1nc(N2CC3CCCC2CN3)c2ccc(-c3cc(O)cc4ccccc34)c(F)c2n1` (stereo partly drawn) [P-0296, 4-(4-(6,8-diazabicyclo[3.2.2]nonan-6-yl)-8-fluoro-2-(((S)-1-methylpyrrolidin-2-yl)methoxy)quinazolin-7-yl)naphthalen-2-ol]: the IC50 in assay [1] lay in the range of 10 to 100 µM; in assay [2], 0.0001 to 10 µM.

As for `CN1CC[C@@H](NC(=O)N2CC3CCCC2CN3c2nc(OC[C@@H]3CCCN3C)nc3c(F)c(-c4cc(O)cc5ccccc45)ccc23)C1` (stereo partly drawn) [P-0297, 8-(8-fluoro-7-(3-hydroxynaphthalen-1-yl)-2-(((S)-1-methylpyrrolidin-2-yl)methoxy)quinazolin-4-yl)-N-((R)-1-methylpyrrolidin-3-yl)-6,8-diazabicyclo[3.2.2]nonane-6-carboxamide], the IC50 in assay [1] and in assay [2] was 0.0001 to 10 µM throughout.

Take `CN1CCC[C@H]1COc1nc(N2CC3CCCC2CN3C(=O)NC2CCOC2)c2ccc(-c3cc(O)cc4ccccc34)c(F)c2n1` (stereo partly drawn) [P-0298, 8-(8-fluoro-7-(3-hydroxynaphthalen-1-yl)-2-(((S)-1-methylpyrrolidin-2-yl)methoxy)quinazolin-4-yl)-N-(tetrahydrofuran-3-yl)-6,8-diazabicyclo[3.2.2]nonane-6-carboxamide]: the IC50 in assay [1] and in assay [2] was 0.0001 to 10 µM each time.

`CN1CCC[C@H]1COc1nc(N2[C@@H]3CC[C@H]2CNC3)c2ccc(-c3c(N)cccc3Cl)cc2n1` [P-0300, 2-(4-((1R,5S)-3,8-diazabicyclo[3.2.1]octan-8-yl)-2-(((S)-1-methylpyrrolidin-2-yl)methoxy)quinazolin-7-yl)-3-chloroaniline]: the half-maximal inhibitory concentration (IC50) in assay [1] and in assay [2] was 10 to 100 µM in each case.

As for `Oc1cc(-c2ccc3c(N4[C@@H]5CC[C@H]4CNC5)nc(Cc4ccncc4)nc3c2)c2ccccc2c1` [P-0301, 4-(4-((1R,5S)-3,8-diazabicyclo[3.2.1]octan-8-yl)-2-(pyridin-4-ylmethyl)quinazolin-7-yl)naphthalen-2-ol], the IC50 in assay [1] and in assay [2] was 0.0001 to 10 µM in each case.

Consider `CN1CCC[C@H]1COc1nc(N2C[C@H]3CC[C@@H](C2)N3)c2cc(F)c(-c3c(O)cccc3F)c(F)c2n1` [P-0302, 2-(4-((1R,5S)-3,8-diazabicyclo[3.2.1]octan-3-yl)-6,8-difluoro-2-(((S)-1-methylpyrrolidin-2-yl)methoxy)quinazolin-7-yl)-3-fluorophenol], for which the IC50 in assay [1] was in the range of 10 to 100 µM; in assay [2] it was 0.0001 to 10 µM.

`Cc1ccc2[nH]ncc2c1-c1c(F)cc2c(N3C[C@H]4CC[C@@H](C3)N4)nc(OC[C@@H]3CCCN3C)nc2c1F` [P-0303, 4-((1R,5S)-3,8-diazabicyclo[3.2.1]octan-3-yl)-6,8-difluoro-7-(5-methyl-1H-indazol-4-yl)-2-(((S)-1-methylpyrrolidin-2-yl)methoxy)quinazoline]: the values for the IC50 in assay [1] and in assay [2] were 10 to 100 µM and 0.0001 to 10 µM, respectively.

On to `CN1CCC[C@H]1COc1nc(N2[C@@H]3CC[C@H]2CNC3)c2ccc(-c3cc(CO)cc4ccccc34)cc2n1` [P-0304, (4-(4-((1R,5S)-3,8-diazabicyclo[3.2.1]octan-8-yl)-2-(((S)-1-methylpyrrolidin-2-yl)methoxy)quinazolin-7-yl)naphthalen-2-yl)methanol], for which the IC50 in assay [1] and in assay [2] was 10 to 100 µM in each case.

With `CN1CCC[C@H]1COc1nc(N2C[C@H]3CC[C@@H](C2)N3)c2cc(F)c(N3CCNc4ccccc43)c(F)c2n1` [P-0305, 4-((1R,5S)-3,8-diazabicyclo[3.2.1]octan-3-yl)-7-(3,4-dihydroquinoxalin-1(2H)-yl)-6,8-difluoro-2-(((S)-1-methylpyrrolidin-2-yl)methoxy)quinazoline], the IC50 in assay [1] fell in the range of 10 to 100 µM; in assay [2], 0.0001 to 10 µM.

Consider `CN1CCC[C@H]1COc1nc(N2C[C@H]3CC[C@@H](C2)N3)c2ccc(N3CCNc4ccccc43)c(F)c2n1` [P-0306, 4-((1R,5S)-3,8-diazabicyclo[3.2.1]octan-3-yl)-7-(3,4-dihydroquinoxalin-1(2H)-yl)-8-fluoro-2-(((S)-1-methylpyrrolidin-2-yl)methoxy)quinazoline], for which the IC50 lay in the range of 10 to 100 µM in assay [1] and 0.0001 to 10 µM in assay [2].

As to `CN1CCC[C@H]1COc1nc(N2C[C@H]3CC[C@@H](C2)N3)c2ccc(N3CC(O)Cc4ccccc43)c(F)c2n1` (stereo partly drawn) [P-0307, 1-(4-((1R,5S)-3,8-diazabicyclo[3.2.1]octan-3-yl)-8-fluoro-2-(((S)-1-methylpyrrolidin-2-yl)methoxy)quinazolin-7-yl)-1,2,3,4-tetrahydroquinolin-3-ol], the IC50 was in the range of 10 to 100 µM in assay [1] and 0.0001 to 10 µM in assay [2].

As for `CN1CCC[C@H]1COc1nc(N2C[C@H]3CC[C@@H](C2)N3)c2cc(F)c(-c3c[nH]c4ccccc34)c(F)c2n1` [P-0308, 4-((1R,5S)-3,8-diazabicyclo[3.2.1]octan-3-yl)-6,8-difluoro-7-(1H-indol-3-yl)-2-(((S)-1-methylpyrrolidin-2-yl)methoxy)quinazoline], the figures for the IC50 in assay [1] and in assay [2] were 10 to 100 µM and 0.0001 to 10 µM, respectively.

By IC50 is commonly meant the concentration needed to halve the response being measured.
